Measurements published in patent US10619138B2, “Herbicide-resistant hydroxyphenylpyruvate dioxygenases” (BASF SE, priority 2013, dated 2020).
pKi: −log10 of the molar value. Where “and” joins values, the source holds several entries; their conditions need not be identical. Equal values may be shown once.

Experiments:
[1] = system: Microscilla HPPD (SEQ ID NO: 20); assay: In vitro HPPD activity assay, tolerance index; type: biochemical, Microscilla marina; settings: normalized on Arabidopsis wild-type HPPD
Procedure: (§1) The activity assay for HPPD is based on the analysis of homogentisic acid by reversed phase HPLC.
(§2) The assay mixture can contain 150 mM potassium phosphate buffer pH 7.0, 50 mM L-ascorbic acid, 100 μM Catalase (Sigma-Aldrich), 1 μM FeSO4 and 0.2 units of purified HPPD enzyme in a total volume of 505 μl. 1 unit is defined as the amount of enzyme that is required to produce 1 nmol of HGA per minute at 20° C.
(§3) The reaction is allowed to proceed for 45 min at room temperature. The reaction is stopped by the addition of 50 μl of 4.5 M phosphoric acid. The sample is filtered using a […] pore size PVDF filtration device.
(§4) 5 μl of the cleared sample is analyzed on an UPLC HSS T3 column (particle size 1.8 μm, dimensions 2.1×50 mm; Waters) by isocratic elution using 90% 20 mM NaH2PO4 pH 2.2, 10% methanol (v/v).
(§5) HGA is detected electrochemically at 750 mV (mode: DC; polarity: positive) and quantified by integrating peak areas (Empower software; Waters).
(§6) Inhibitors are dissolved in DMSO (dimethylsulfoxide) to a concentration of 0.5 mM. From this stock solution serial five-fold dilutions are prepared in DMSO, which are used in the assay. The respective inhibitor solution accounts for 1% of the assay volume. Thus, final inhibitor concentrations range from 5 μM to 320 pM, respectively. Activities are normalized by setting the uninhibited enzyme activity to 100%. IC50 values are calculated using non-linear regression.
(§7) Using methods which are described in the above examples or well known in the art, purified, recombinant wildtype HPPD enzymes are characterized with respect to their kinetic properties and sensitivity towards HPPD inhibiting herbicides. Apparent michaelis constants (Km) and maximal reaction velocities (Vmax) are calculated by non-linear regression with the software GraphPad Prism 5 (GraphPad Software, La Jolla, USA) using a substrate inhibition model. […] Weighted means (by standard error) of Km and IC50 values are calculated from at least three independent experiments. The Cheng-Prusoff equation for competitive inhibition (Cheng, Y. C.; Prusoff, W. H. Biochem Pharmacol 1973, 22, 3099-3108) is used to calculate dissociation constants (Ki).
(§8) Field performance of the HPPD enzyme, which is used as a herbicide tolerance trait may depend not only on its lack of sensitivity towards HPPD inhibiting herbicides but also on its activity. To assess the potential performance of a herbicide tolerance trait a tolerance index (TI) is calculated using the following formula: […]
(§9) Easy comparison and ranking of each trait is enabled by normalizing tolerance indexes on Arabidopsis wild-type HPPD.

[2] = system: untransformed wild-type (WT) Arabidopsis plants; assay: Greenhouse herbicide spray test, wild-type plants; type: in vivo, Arabidopsis thaliana; settings: two weeks after treatment, mean of three plants
Excerpt: (§10) Additionally, T1 and T2 transgenic Arabidopsis plants can be tested for improved tolerance to HPPD-inhibiting herbicides in greenhouse studies. Herbicide injury scoring is done 2-3 weeks after treatment and is rated on a scale of 0 to 100%, 0% being no injury and 100% being complete death.
(§11) Transgenic Arabidopsis plants were sprayed with a range of doses from 1.56-50 g/ha with HPPD-inhibiting herbicides and injury evaluations were taken two weeks after treatment. […] As depicted in Table 6, control plants are severely injured by all doses of herbicide applied, with at least 70% of leaf material being damaged at the lowest application rate. For example, transgenic plants expressing Scenedesmus HPPD have an excellent tolerance to all herbidcides tested. […] After application of Inhibitor 2, only 18% of leaf material was damaged resulting in a 5-fold tolerance compared to the WT at the highest application rate.

[3] = system: Mucilaginibacter HPPD (SEQ ID NO: 28); assay: In vitro HPPD activity assay, tolerance index; type: biochemical, Mucilaginibacter paludis; settings: normalized on Arabidopsis wild-type HPPD
Procedure: as §1, §2, §3, §4, §5, §6, §7, §8, §9

[4] = system: Acidobacterium HPPD (SEQ ID NO: 30); assay: In vitro HPPD activity assay, tolerance index; type: biochemical, Acidobacterium capsulatum; settings: normalized on Arabidopsis wild-type HPPD
Procedure: as §1, §2, §3, §4, §5, §6, §7, §8, §9

[5] = system: Pontibacter HPPD (SEQ ID NO: 16); assay: In vitro HPPD activity assay, tolerance index; type: biochemical, Pontibacter sp.; settings: normalized on Arabidopsis wild-type HPPD
Procedure: as §1, §2, §3, §4, §5, §6, §7, §8, §9

[6] = molecular target: T1, Arabidopsis HPPD (SEQ ID NO: 42) (Arabidopsis thaliana, UniProt P93836); assay: In vitro HPPD activity assay (HGA by HPLC), wildtype enzyme characterization; type: biochemical; settings: for TI (normalized tolerance index): normalized on Arabidopsis wild-type HPPD, reference enzyme
T1 construct: Arabidopsis (42); His tag; made in house; host or cells: E. coli BL21 (DE3)
T1 sequence (P93836 1-445): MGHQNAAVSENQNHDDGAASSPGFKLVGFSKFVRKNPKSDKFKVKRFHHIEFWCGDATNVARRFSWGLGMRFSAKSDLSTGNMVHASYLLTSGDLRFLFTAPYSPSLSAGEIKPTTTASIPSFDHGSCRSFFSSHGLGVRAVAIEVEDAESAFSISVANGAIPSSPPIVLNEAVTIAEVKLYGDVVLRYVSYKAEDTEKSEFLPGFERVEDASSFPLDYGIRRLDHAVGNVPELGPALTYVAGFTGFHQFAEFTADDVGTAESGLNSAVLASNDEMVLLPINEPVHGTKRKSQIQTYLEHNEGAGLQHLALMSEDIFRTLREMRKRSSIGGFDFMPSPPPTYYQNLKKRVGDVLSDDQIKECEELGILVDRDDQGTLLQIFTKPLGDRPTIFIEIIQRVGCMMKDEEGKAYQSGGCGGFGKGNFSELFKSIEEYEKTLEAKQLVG
Procedure: as §1, §2, §3, §4, §5
Inhibitors are dissolved in DMSO (dimethylsulfoxide) to a concentration of 0.5 mM. From this stock solution serial five-fold dilutions are prepared in DMSO, which are used in the assay. The respective inhibitor solution accounts for 1% of the assay volume. […] Activities are normalized by setting the uninhibited enzyme activity to 100%. IC50 values are calculated using non-linear regression.
Using methods which are described in the above examples or well known in the art, purified, recombinant wildtype HPPD enzymes are characterized with respect to their kinetic properties and sensitivity towards HPPD inhibiting herbicides. Apparent michaelis constants (Km) and maximal reaction velocities (Vmax) are calculated by non-linear regression with the software GraphPad Prism 5 (GraphPad Software, La Jolla, USA) using a substrate inhibition model. […] Weighted means (by standard error) of Km and IC50 values are calculated from at least three independent experiments.
as §8, §9

[7] = system: Algoriphagus HPPD (SEQ ID NO: 22); assay: In vitro HPPD activity assay, tolerance index; type: biochemical, Algoriphagus machipongonensis; settings: normalized on Arabidopsis wild-type HPPD
Procedure: as §1, §2, §3, §4, §5, §6, §7, §8, §9

[8] = system: transgenic Arabidopsis plants expressing Acidobacterium HPPD; assay: Greenhouse herbicide spray test, transgenic plants (T2); type: in vivo, Arabidopsis thaliana; settings: two weeks after treatment
Excerpt: as §10, §11

[9] = system: transgenic Arabidopsis plants expressing Algoriphagus HPPD; assay: as above; type: in vivo, Arabidopsis thaliana; settings: two weeks after treatment
Excerpt: as §10, §11

[10] = system: transgenic Arabidopsis plants expressing Scenedesmus HPPD; assay: as above; type: in vivo, Arabidopsis thaliana; settings: two weeks after treatment
Excerpt: as §10, §11

[11] = system: Geodermatophilus HPPD (SEQ ID NO: 32); assay: In vitro HPPD activity assay, tolerance index; type: biochemical, Geodermatophilus obscurus; settings: normalized on Arabidopsis wild-type HPPD
Procedure: as §1, §2, §3, §4, §5, §6, §7, §8, §9

[12] = system: Herpetosiphon HPPD (SEQ ID NO: 26); assay: In vitro HPPD activity assay, tolerance index; type: biochemical, Herpetosiphon aurantiacus; settings: normalized on Arabidopsis wild-type HPPD
Procedure: as §1, §2, §3, §4, §5, §6, §7, §8, §9

## Cc1c(C(=O)c2cnn(C)c2O)ccc(S(C)(=O)=O)c1C1=NOCC1 [Inhibitor 1, [3-(4,5-dihydroisoxazol-3-yl)-2-methyl-4-methylsulfonyl-phenyl]-(5-hydroxy-1-methyl-pyrazol-4-yl)methanone]
[1]
  TI (normalized tolerance index): 9.1
[2]; 1.56 g/ha
  Injury evaluation, scale 0-100%: 88%
[2]; 3.125 g/ha
  Injury evaluation, scale 0-100%: 90%
[2]; 6.25 g/ha
  Injury evaluation, scale 0-100%: 90%
[3]
  TI (normalized tolerance index): 56.8
[4]
  TI (normalized tolerance index): 22 and 21.9
[5]
  TI (normalized tolerance index): 5.3
[6]
  pKi: 9.02
  TI (normalized tolerance index): 1
[6]; not normalized
  TI (tolerance index): 0.95E−3
[7]
  TI (normalized tolerance index): 23.7
[8]; Acidobacterium HPPD Event 1, 1.56 g/ha
  Injury evaluation, scale 0-100%: 43%
[8]; Acidobacterium HPPD Event 1, 3.125 g/ha
  Injury evaluation, scale 0-100%: 78%
[8]; Acidobacterium HPPD Event 1, 6.25 g/ha
  Injury evaluation, scale 0-100%: 94%
[8]; Acidobacterium HPPD Event 2, 1.56 g/ha
  Injury evaluation, scale 0-100%: 48%
[8]; Acidobacterium HPPD Event 2, 3.125 g/ha
  Injury evaluation, scale 0-100%: 78%
[8]; Acidobacterium HPPD Event 2, 6.25 g/ha
  Injury evaluation, scale 0-100%: 97%
[9]; Algoriphagus HPPD Event 1, 1.56 g/ha
  Injury evaluation, scale 0-100%: 60%
[9]; Algoriphagus HPPD Event 1, 3.125 g/ha
  Injury evaluation, scale 0-100%: 70%
[9]; Algoriphagus HPPD Event 1, 6.25 g/ha
  Injury evaluation, scale 0-100%: 90%
[9]; Algoriphagus HPPD Event 2, 1.56 g/ha
  Injury evaluation, scale 0-100%: 48%
[9]; Algoriphagus HPPD Event 2, 3.125 g/ha
  Injury evaluation, scale 0-100%: 68%
[9]; Algoriphagus HPPD Event 2, 6.25 g/ha
  Injury evaluation, scale 0-100%: 78%
[10]; Scenedesmus HPPD Event 1, 1.56 g/ha
  Injury evaluation, scale 0-100%: 35%
[10]; Scenedesmus HPPD Event 1, 3.125 g/ha
  Injury evaluation, scale 0-100%: 58%
[10]; Scenedesmus HPPD Event 1, 6.25 g/ha
  Injury evaluation, scale 0-100%: 68%
[10]; Scenedesmus HPPD Event 2, 1.56 g/ha
  Injury evaluation, scale 0-100%: 45%
[10]; Scenedesmus HPPD Event 2, 3.125 g/ha
  Injury evaluation, scale 0-100%: 55%
[10]; Scenedesmus HPPD Event 2, 6.25 g/ha
  Injury evaluation, scale 0-100%: 65%

## CC1=NOC(c2c(Cl)ccc(C3=C(O)c4ncccc4C(C)(C)S3(=O)=O)c2Cl)C1 (centres unmarked) [Inhibitor 7, 7-[2,4-dichloro-3-(3-methyl-4,5-dihydroisoxazol-5-yl)phenyl]-5,5-dimethyl-6,6-dioxo-thiopyrano[4,3-b]pyridin-8-ol]
[1]
  TI (normalized tolerance index): 337.7
[3]
  TI (normalized tolerance index): 62.6
[4]
  TI (normalized tolerance index): 239 and 238.9
[5]
  TI (normalized tolerance index): 107.7
[6]
  TI (normalized tolerance index): 1
[7]
  TI (normalized tolerance index): 448 and 447.5

## CC1(C)c2cccnc2C(O)=C(c2ccc(Cl)nc2Cl)S1(=O)=O [Inhibitor 8, 7-(2,6-dichloro-3-pyridyl)-5,5-dimethyl-6,6-dioxo-thiopyrano[4,3-b]pyridin-8-ol]
[1]
  TI (normalized tolerance index): 65.9
[3]
  TI (normalized tolerance index): 26
[4]
  TI (normalized tolerance index): 35 and 34.6
[5]
  TI (normalized tolerance index): 13.7
[6]
  TI (normalized tolerance index): 1
[7]
  TI (normalized tolerance index): 73.7

## CC1(C)c2cccnc2C(O)=C(c2c(F)ccc(Cl)c2Br)S1(=O)=O [Inhibitor 9, 7-(2-bromo-3-chloro-6-fluoro-phenyl)-5,5-dimethyl-6,6-dioxo-thiopyrano[4,3-b]pyridin-8-ol]
[1]
  TI (normalized tolerance index): 22.8
[11]
  TI (normalized tolerance index): tolerant
[4]
  TI (normalized tolerance index): 20 and 20.2
[12]
  TI (normalized tolerance index): tolerant
[5]
  TI (normalized tolerance index): 3.9
[6]
  TI (normalized tolerance index): 1
[7]
  TI (normalized tolerance index): 42.8

## Cc1nonc1NC(=O)c1ccc(S(C)(=O)=O)c(S(C)(=O)=O)c1C [Inhibitor 10, 2-methyl-N-(4-methyl-1,2,5-oxadiazol-3-yl)-3,4-bis(methylsulfonyl)benzamide]
[1]
  TI (normalized tolerance index): 8.3
[3]
  TI (normalized tolerance index): 34.1
[5]
  TI (normalized tolerance index): 6
[6]
  TI (normalized tolerance index): 1
[7]
  TI (normalized tolerance index): 19
